Measurements published in PubChem BioAssay (NCI).
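These data come from cells grown in 96-well plates and exposed to compound for 48 hours at five concentrations. The concentration for 50% growth inhibition is given as GI50. TGI: concentration producing complete growth inhibition.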

How the values were obtained:
Test in all cases: NCI tumour cell line growth inhibition, 48 h
OVCAR-3 ovarian = system: OVCAR-3 ovarian
SF-295 CNS = system: SF-295 CNS
A549 NSCLC = system: A549 NSCLC
SNB-75 CNS = system: SNB-75 CNS
NCI-H522 lung = system: NCI-H522 lung
SN12C renal = system: SN12C renal
SK-OV-3 ovarian = system: SK-OV-3 ovarian
OVCAR-5 ovarian = system: OVCAR-5 ovarian
NCI-H460 lung = system: NCI-H460 lung
SK-MEL-5 melanoma = system: SK-MEL-5 melanoma
RXF 393 renal = system: RXF 393 renal
OVCAR-4 ovarian = system: OVCAR-4 ovarian
SF-539 CNS = system: SF-539 CNS
HOP-62 NSCLC = system: HOP-62 NSCLC
A498 renal = system: A498 renal
ACHN renal = system: ACHN renal
SF-268 CNS = system: SF-268 CNS
TK-10 renal = system: TK-10 renal
U251 CNS = system: U251 CNS
CCRF-CEM leukemia = system: CCRF-CEM leukemia
CAKI-1 renal = system: CAKI-1 renal
LOX IMVI melanoma = system: LOX IMVI melanoma
NCI/ADR-RES ovarian = system: NCI/ADR-RES ovarian
NCI-H23 lung = system: NCI-H23 lung
UACC-62 melanoma = system: UACC-62 melanoma
HCC-2998 colon = system: HCC-2998 colon
K-562 leukemia = system: K-562 leukemia
HCT-15 colon = system: HCT-15 colon
HCT-116 colon = system: HCT-116 colon
MOLT-4 leukemia = system: MOLT-4 leukemia
MCF7 breast = system: MCF7 breast
T-47D breast = system: T-47D breast
PC-3 prostate = system: PC-3 prostate
HT29 colon = system: HT29 colon
UO-31 renal = system: UO-31 renal
786-0 renal = system: 786-0 renal
DU-145 prostate = system: DU-145 prostate
EKVX NSCLC = system: EKVX NSCLC
RPMI-8226 leukemia = system: RPMI-8226 leukemia
HL-60(TB) leukemia = system: HL-60(TB) leukemia
MDA-MB-231 breast = system: MDA-MB-231 breast
KM12 colon = system: KM12 colon
COLO 205 colon = system: COLO 205 colon
HS 578T breast = system: HS 578T breast
UACC-257 melanoma = system: UACC-257 melanoma
SNB-19 CNS = system: SNB-19 CNS
NCI-H226 lung = system: NCI-H226 lung
SK-MEL-2 melanoma = system: SK-MEL-2 melanoma
OVCAR-8 ovarian = system: OVCAR-8 ovarian
SK-MEL-28 melanoma = system: SK-MEL-28 melanoma
SW-620 colon = system: SW-620 colon

Compound `C=C(CN1CCc2ccccc2C1)c1ccc(C(=O)Nc2cnccn2)cc1` has a GI50 (OVCAR-3 ovarian) of 22.1 µM, a TGI (OVCAR-3 ovarian) of 62.6 µM and a GI50 (SF-295 CNS) of 19.1 µM. It also gave a TGI (SF-295 CNS) of 73 µM, a GI50 (A549 NSCLC) of 31 µM and a TGI (A549 NSCLC) of over 100 µM. For the same compound, the GI50 (SNB-75 CNS) was 16.7 µM, the TGI (SNB-75 CNS) was 61.2 µM and the GI50 (NCI-H522 lung) was 18.2 µM. For the same compound, the TGI (NCI-H522 lung) was 42.5 µM, the GI50 (SN12C renal) was 50.4 µM and the TGI (SN12C renal) was over 100 µM. The GI50 (SK-OV-3 ovarian) was 24.3 µM, the TGI (SK-OV-3 ovarian) was 84.5 µM and the GI50 (OVCAR-5 ovarian) was over 100 µM. For the same compound, the TGI (OVCAR-5 ovarian) was over 100 µM, the GI50 (NCI-H460 lung) was 36.3 µM and the TGI (NCI-H460 lung) was over 100 µM. It also gave a GI50 (SK-MEL-5 melanoma) of 20.8 µM, a TGI (SK-MEL-5 melanoma) of 61 µM and a GI50 (RXF 393 renal) of 39 µM. The TGI (RXF 393 renal) was over 100 µM, the GI50 (OVCAR-4 ovarian) was 99.4 µM and the TGI (OVCAR-4 ovarian) was over 100 µM. For the same compound, the GI50 (SF-539 CNS) was 7.59 µM, the TGI (SF-539 CNS) was 83.3 µM and the GI50 (HOP-62 NSCLC) was 27.1 µM. It also gave a TGI (HOP-62 NSCLC) of over 100 µM, a GI50 (A498 renal) of 33.4 µM and a TGI (A498 renal) of over 100 µM. For the same compound, the GI50 (ACHN renal) was 30.8 µM, the TGI (ACHN renal) was over 100 µM and the GI50 (SF-268 CNS) was 60.4 µM. It also gave a TGI (SF-268 CNS) of over 100 µM, a GI50 (TK-10 renal) of 86.3 µM and a TGI (TK-10 renal) of over 100 µM. It also gave a GI50 (U251 CNS) of 16.2 µM, a TGI (U251 CNS) of over 100 µM and a GI50 (CCRF-CEM leukemia) of 5.42 µM. The TGI (CCRF-CEM leukemia) was over 100 µM, the GI50 (CAKI-1 renal) was 7.77 µM and the TGI (CAKI-1 renal) was over 100 µM. It also gave a GI50 (LOX IMVI melanoma) of 9.18 µM, a TGI (LOX IMVI melanoma) of over 100 µM and a GI50 (NCI/ADR-RES ovarian) of 4.95 µM. It also gave a TGI (NCI/ADR-RES ovarian) of over 100 µM, a GI50 (NCI-H23 lung) of 18.4 µM and a TGI (NCI-H23 lung) of over 100 µM. The GI50 (UACC-62 melanoma) was 44 µM, the TGI (UACC-62 melanoma) was over 100 µM and the GI50 (HCC-2998 colon) was 36.1 µM. It also gave a TGI (HCC-2998 colon) of over 100 µM, a GI50 (K-562 leukemia) of 3.17 µM and a TGI (K-562 leukemia) of 14.7 µM. For the same compound, the GI50 (HCT-15 colon) was 28.8 µM, the TGI (HCT-15 colon) was over 100 µM and the GI50 (HCT-116 colon) was 16.6 µM. The TGI (HCT-116 colon) was 68 µM, the GI50 (MOLT-4 leukemia) was 5.82 µM and the TGI (MOLT-4 leukemia) was over 100 µM. It also gave a GI50 (MCF7 breast) of over 100 µM, a TGI (MCF7 breast) of over 100 µM and a GI50 (T-47D breast) of over 100 µM. It also gave a TGI (T-47D breast) of over 100 µM, a GI50 (PC-3 prostate) of 1.86 µM and a TGI (PC-3 prostate) of over 100 µM. The GI50 (HT29 colon) was 24.1 µM, the TGI (HT29 colon) was 59.5 µM and the GI50 (UO-31 renal) was 24.4 µM. It also gave a TGI (UO-31 renal) of over 100 µM, a GI50 (786-0 renal) of 25.4 µM and a TGI (786-0 renal) of over 100 µM. For the same compound, the GI50 (DU-145 prostate) was 30.1 µM, the TGI (DU-145 prostate) was 89.7 µM and the GI50 (EKVX NSCLC) was 52.8 µM. For the same compound, the TGI (EKVX NSCLC) was over 100 µM, the GI50 (RPMI-8226 leukemia) was 3.35 µM and the TGI (RPMI-8226 leukemia) was 10.3 µM. For the same compound, the GI50 (HL-60(TB) leukemia) was 3.55 µM, the TGI (HL-60(TB) leukemia) was 14 µM and the GI50 (MDA-MB-231 breast) was 27.3 µM. The TGI (MDA-MB-231 breast) was over 100 µM, the GI50 (KM12 colon) was 12.5 µM and the TGI (KM12 colon) was 56.5 µM. The GI50 (COLO 205 colon) was 17.5 µM, the TGI (COLO 205 colon) was 40.1 µM and the GI50 (HS 578T breast) was 57.1 µM. It also gave a TGI (HS 578T breast) of over 100 µM, a GI50 (UACC-257 melanoma) of 83.6 µM and a TGI (UACC-257 melanoma) of over 100 µM. It also gave a GI50 (SNB-19 CNS) of 51.1 µM, a TGI (SNB-19 CNS) of over 100 µM and a GI50 (NCI-H226 lung) of over 100 µM. The TGI (NCI-H226 lung) was over 100 µM, the GI50 (SK-MEL-2 melanoma) was 46.6 µM and the TGI (SK-MEL-2 melanoma) was over 100 µM. The GI50 (OVCAR-8 ovarian) was 30.2 µM, the TGI (OVCAR-8 ovarian) was over 100 µM and the GI50 (SK-MEL-28 melanoma) was 25.4 µM. For the same compound, the TGI (SK-MEL-28 melanoma) was over 100 µM, the GI50 (SW-620 colon) was 42.3 µM and the TGI (SW-620 colon) was over 100 µM.
